US8268836B2, “Compound useful as a c-Met inhibitor” (Eli Lilly and Company, priority 2010, dated 2012)

Columns and labels:
[1] = target: 99 kinases; experiment: Cerep Express Diversity Kinase Profile screening; assay type: biochemical
Source text: The Express Diversity Kinase Profile™ is a screening service developed by Cerep SA (Paris, France). Details of assay conditions and/or contact information can be found on their website http://www.cerep.fecerep/users/pages/catalog/profiles/catalog.asp).

[2] = Rat bioavailability study; assay type: in vivo
Experimental: In rat bioavailability studies, each compound is administered intravenously (IV) or orally (PO). Intravenous dosing is formulated in solution formulation and oral dosing is formulated in 10% w/v acacia. Rat blood samples are collected using anti-coagulant (EDTA) collection tubes and centrifugation is performed to obtain plasma samples. Aliquots of plasma are pipetted and stored immediately at <−20° C. Shipments of plasma samples are packed in dry ice if needed and samples are frozen at <−20° C. until analysis.
A stock solution of each drug is prepared and is diluted into pooled rat plasma to prepare standards. Plasma standards or samples are treated by protein precipitation or liquid-liquid extraction using organic solvent containing internal standard. The mixtures are centrifuged and aliquots of the resulting supernatant fractions are transferred. In the case of protein precipitation, supernatant is diluted and analyzed using a Mass Spectrometer coupled to a HPLC System and an autosampler. In the case of liquid-liquid-extraction, supernatant is dried under N2 at 40° C., reconstituted and analyzed using a Mass Spectrometer coupled to a HPLC System and an autosampler. Quantitation is performed using multiple reaction monitoring (MRM) and linear regression plots of compounds to internal standard peak area ratios versus drug concentrations.

[3] = plasma, PO 10 mg/kg in 10% acacia, Example 1 dosed as mesylate salt

With `Cn1cc(-c2ccc3nnc(Sc4ccc5nn(C)cc5c4)n3n2)cn1` [Example 1, 6-(1-Methyl-1H-pyrazol-4-yl)-3-(2-methyl-2H-indazol-5-ylthio)-[1,2,4]triazolo[4,3-b]pyridazine] the “Kinases inhibited in Cerep screening of 99 kinases” value [1] was “inhibited only c-Met”, the “fold increase in oral bioavailability vs reference compound” value [2] was 4.5 fold and the “fold longer terminal elimination half life vs reference compound” value ([2]; 1 mg/kg intravenous dose) was 4 fold. For the same molecule, the “fold lower plasma clearance vs reference compound” value ([2]; 1 mg/kg intravenous dose) was 18 fold, the “fold higher exposure by peak plasma concentration vs reference compound” value ([2]; 10 mg/kg oral dose, 10% acacia) was 57 fold and the “fold higher exposure by plasma AUC vs reference compound” value ([2]; 10 mg/kg oral dose, 10% acacia) was 93 fold. It also gave a clearance ([2]; plasma, IV 1 mg/kg solution, Example 1 dosed as mesylate salt) of 0.102 L/h/kg, a half-life ([2]; plasma, IV 1 mg/kg solution, Example 1 dosed as mesylate salt, read-out: T½ (converted)) of 2.3 h and a Vd ([2]; plasma, IV 1 mg/kg solution, Example 1 dosed as mesylate salt, read-out: Vdss) of 0.3 L/kg. It also gave an AUC [2, 3] of 73.8 µg·h/mL, a Cmax [2, 3] of 9.4 µg/mL and a Tmax [2, 3] of 3.33 h. The bioavailability ([2]; plasma, PO 10 mg/kg vs IV 1 mg/kg, Example 1 dosed as mesylate salt, read-out: F % (oral bioavailability)) was 65.8%.
